Test results from patent US5985292A, “Active phospholipids as a vector for active molecules” (Roussel-UCLAF, priority 1993, dated 1999).

System: comedones
Conditions: topical
Protocol: As an example, the comedolytic power of all-trans 2-retinoyl phosphatidinyl ethanol was tested following the protocol below:
The animal chosen for the test of comedolytic activity was the Hairless Rhino (hr rh) mouse of female sex, this choice being due to the fact that the skin of such an animal has a high density of comedones having a large diameter and narrow orifice. The use of comedolytic agents on the skin of the animal provokes the opening of the orifice of the comedones, the release of the horny material and the sebum that it contains.
Two groups comprising six mice each which were six-week's old at the start of the test and weighing on average 18 grams each were used. The first group were mice treated with distilled water (negative control group) and the second group were mice treated with the product under study. The treatment consisted of a topical use of the product studied on the interscapular area at a dose of 0.02 ml, 5 days out of 7, for 21 days. The animals were sacrificed at the end of three weeks of treatment, 24 hours after the last application.
Biopsies of the skin were then taken from the treated areas of the animals and from these biopsies, sections were prepared for a standard morphometric study by methods known to a person skilled in the art. The following parameters were measured: diameter of the opening of the comedon at the surface i.e d […]
comedonian profile i.e R = d/D
The ratio R=d/D allowed the action of the comedolytic agents to be quantified.
The percentage of inhibition of the comedones was calculated for the product under study relative to the negative control, i.e. the following ratio: [formula]

Substance: all-trans 2-retinoyl phosphatidinyl ethanol
- % inhibition of the comedones relative to the negative control (0.1% in solution in ethylenediglycol, interscapular, 0.02 ml, 5 days out of 7, for 21 days): 14.1%
- comedonian profile R = d/D (diameter of the opening of the comedon at the surface / diameter of the comedon) (0.1% in solution in ethylenediglycol, interscapular, 0.02 ml, 5 days out of 7, for 21 days, negative control (distilled water) R = 0.78): 0.89
- comedolytic activity (in words) (at a dose of 0.1%, 21 days): good comedolytic activity
